Laboratory results published in ChEMBL document CHEMBL1287661, “Computational structure-activity relationship analysis of small-molecule agonists for human formyl peptide receptors” (Eur J Med Chem, 2010).
The source made the active and inactive calls.

Key:
[1] = target: T1, N-formyl peptide receptor 2 (Homo sapiens) (UniProt P25090); experiment: Agonist activity at human FPR2 expressed in RBL-2H3 cells assessed as induction of calcium mobilization; type: functional, cell-based
T1 sequence (whole entry): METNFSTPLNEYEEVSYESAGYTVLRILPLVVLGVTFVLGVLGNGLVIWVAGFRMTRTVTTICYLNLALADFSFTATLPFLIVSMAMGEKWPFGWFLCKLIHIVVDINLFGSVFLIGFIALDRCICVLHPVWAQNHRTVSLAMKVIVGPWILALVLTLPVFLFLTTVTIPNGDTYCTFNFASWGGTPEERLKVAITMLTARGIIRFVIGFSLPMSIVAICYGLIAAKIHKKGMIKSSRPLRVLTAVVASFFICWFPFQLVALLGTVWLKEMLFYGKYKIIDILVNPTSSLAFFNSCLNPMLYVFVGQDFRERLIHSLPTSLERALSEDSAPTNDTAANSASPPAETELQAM

[2] = target: T2, fMet-Leu-Phe receptor (Homo sapiens) (UniProt P21462); experiment: Agonist activity at human FPR1 expressed in RBL-2H3 cells assessed as induction of calcium mobilization; type: functional, cell-based
T2 sequence (whole entry): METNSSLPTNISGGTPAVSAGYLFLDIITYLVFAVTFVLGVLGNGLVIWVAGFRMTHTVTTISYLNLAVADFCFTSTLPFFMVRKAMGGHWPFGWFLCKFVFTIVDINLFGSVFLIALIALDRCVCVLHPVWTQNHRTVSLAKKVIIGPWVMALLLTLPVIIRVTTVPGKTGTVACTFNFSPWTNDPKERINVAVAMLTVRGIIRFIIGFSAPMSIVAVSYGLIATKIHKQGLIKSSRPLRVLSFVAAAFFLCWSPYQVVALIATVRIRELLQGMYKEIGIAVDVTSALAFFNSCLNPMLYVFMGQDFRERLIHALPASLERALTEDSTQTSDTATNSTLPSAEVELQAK

Compound	Activity [1]	Activity [2]
Cc1ccc(Cl)cc1N1CCN(CC(=O)Nc2ccc(Br)cc2)CC1	Active	
O=C(CN1CCN(c2ccccc2)CC1)Nc1ccc(Br)cc1	Active	
O=C(CN1CCN(c2ccc(F)cc2)CC1)Nc1ccc(Br)cc1	Active	
COc1ccc(CCNC(=O)Nc2ccc(F)cc2)cc1	Active	
Cc1cccc2[nH]c(SCC(=O)Nc3ccc(Cl)c([N+](=O)[O-])c3)nc12	inactive	inactive
COc1ccc2[nH]c(SCC(=O)Nc3ccccc3)nc2c1		Active
O=C(CN1CCN(c2ccccn2)CC1)Nc1ccc(Cl)cc1	inactive	inactive
COc1cccc(NC(=O)CSc2nc3cc(OC)ccc3[nH]2)c1		Active
O=C(CN1CCN(c2ccccc2)CC1)Nc1ccccc1	inactive	inactive
COc1ccc(CC(=O)N/N=C/C=C/c2ccccc2[N+](=O)[O-])cc1OC	Active	
COc1ccc(NC(=O)Nc2ccc(C(=O)N3CCCCC3)cc2)cc1	Active	Active
CC(C)c1c(NC(=O)Nc2ccc(Cl)cc2)c(=O)n(-c2ccccc2)n1C	Active	Active
O=C(NCCc1ccccc1)Nc1ccccc1	inactive	inactive
COc1cc(/C=N/NC(=O)c2ccc3c(c2)OCO3)ccc1OCc1ccccc1		Active
O=C(CN1CCN(c2ccc(Cl)cc2)CC1)Nc1ccc(Br)cc1	Active	
COc1ccc(CCNC(=O)Nc2ccccc2)cc1	Active	
O=C1NCC(c2ccccc2)C1C(=O)N/N=C/C=C/c1ccc(Br)cc1 (configuration not stated)	inactive	inactive
O=C(CSc1nc2ccccc2[nH]1)Nc1cccc(Br)c1	inactive	inactive
CCOc1ccc(NC(=O)CSc2nc3cc(OC)ccc3[nH]2)cc1		Active
O=C(CSc1nc2ccccc2s1)N/N=C/C=C/c1ccccc1[N+](=O)[O-]	inactive	inactive
O=C(Cc1ccc(Br)cc1)N/N=C/C=C/c1ccccc1[N+](=O)[O-]	Active	
Cc1cccc(NC(=O)NCCc2ccc(Cl)cc2)c1	inactive	inactive

Compound	Activity [1]	Activity [2]
O=C(NNC(=O)c1ccccc1[N+](=O)[O-])c1ccc(Cl)cc1	Active	
O=C(CNc1ccccc1)N/N=C/C=C/c1ccccc1[N+](=O)[O-]	Active	
COc1ccccc1/C=C/C=N/NC(=O)Cc1cccs1	inactive	inactive
COc1ccc2[nH]c(SCC(=O)Nc3ccccc3OC)nc2c1	Active	Active
O=C(CN1CCN(c2ccccc2)CC1)Nc1ccccc1Br	inactive	inactive
COc1ccc(CCNC(=O)Nc2ccc(Cl)cc2)cc1	Active	
O=C(N/N=C/c1ccc(-c2cccc(C(F)(F)F)c2)o1)c1ccc(F)cc1	Active	
COc1ccc2[nH]c(SCC(=O)Nc3ccc(Br)cc3)nc2c1		Active
O=C(CN1CCN(c2cccc(Cl)c2)CC1)Nc1ccc(Br)cc1	Active	
O=C(CN1CCN(c2ccccc2Cl)CC1)Nc1ccccc1	inactive	inactive
CCOc1ccc(C(=O)NN2C(=O)c3ccccc3NC2c2ccc(OC)cc2)cc1 (configuration not stated)	Active	
Cc1ccc(CCNC(=O)Nc2ccc(F)cc2)cc1	inactive	inactive
COc1ccc(CCNC(=O)Nc2ccc(Cl)cc2Cl)cc1	inactive	inactive
COc1ccc2[nH]c(SCC(=O)Nc3ccc(Cl)cc3)nc2c1	Active	Active
CCCC(C)c1ccc(OCC(=O)N/N=C/c2ccsc2)cc1 (configuration not stated)	Active	Active
Cc1c(Cl)cccc1N1CCN(CC(=O)Nc2ccc(Br)cc2)CC1	Active	
COc1ccc(NC(=O)CCCCc2cccs2)cc1	Active	
COc1ccc(C2Nc3ccccc3C(=O)N2NC(=O)c2ccc([N+](=O)[O-])cc2)cc1 (configuration not stated)	Active	
COc1cccc(Cc2cc(C)nn(CC(=O)Nc3ccc4c(c3)OCO4)c2=O)c1		Active
CCc1nc2ccccc2n1[C@@H]1CCN(C(=O)c2nc3cc(OC)ccc3[nH]2)C1	Active	
COc1ccc2[nH]c(SCC(=O)Nc3ccc([N+](=O)[O-])cc3)nc2c1		Active
Cc1c(NC(=O)Nc2ccc(Br)cc2)c(=O)n(-c2ccccc2)n1C	Active	

Compound	Activity [1]	Activity [2]
O=C(NCCc1ccc(Cl)cc1)Nc1ccccc1[N+](=O)[O-]	inactive	inactive
COc1ccc(CCNC(=O)Nc2ccc(Br)cc2)cc1	Active	
CCOc1ccc2[nH]c(SCC(=O)Nc3ccc(OC)cc3)nc2c1		Active
COc1cccc(N2CCN(CC(=O)Nc3ccc(Br)cc3)CC2)c1	Active	
CCC(Nc1ccc(OC)cc1)C(=O)N/N=C(C)/C=C/c1ccccc1 (configuration not stated)	Active	
O=C(CN1CCN(c2ccccc2)CC1)Nc1ccc(F)c(Cl)c1	inactive	inactive
Cc1ccc2[nH]c(SCC(=O)Nc3cccc(C(F)(F)F)c3)nc2c1	inactive	inactive
CSc1ccc(NC(=O)Nc2c(C)n(C)n(-c3ccccc3)c2=O)cc1	Active	
COc1ccc2[nH]c(SCC(=O)Nc3ccc(OC)c(OC)c3)nc2c1	Active	Active
CSCC[C@H](NC(=O)[C@H](Cc1ccc(O)cc1)NC(=O)[C@H](CCCCN)NC(=O)[C@@H](N)Cc1c[nH]c2ccccc12)C(=O)N[C@H](C(=O)N[C@H](CCSC)C(N)=O)C(C)C	Active	Active
O=C(CSc1nc2ccccc2[nH]1)Nc1ccc([N+](=O)[O-])cc1	inactive	inactive
CC1(C)CC(=O)C(C(c2cccc(OCc3ccccc3)c2)C2C(=O)CC(C)(C)CC2=O)C(=O)C1		Active
O=C(Cc1ccccc1)N/N=C/C=C/c1ccccc1[N+](=O)[O-]	inactive	inactive
O=C(CSc1nc2ccccc2[nH]1)Nc1ccccc1	inactive	inactive
CCc1c(NC(=O)Nc2ccc(Cl)cc2)c(=O)n(-c2ccccc2)n1C	Active	
Cc1ccc(N2CCN(CC(=O)Nc3ccc(Br)cc3)CC2)cc1Cl	Active	
O=C(N/N=C/c1ccc(-c2cccc(Br)c2)o1)c1cccnc1	Active	
COc1ccc(NC(=S)NN2C(=O)CSC2c2c[nH]c3ccccc23)cc1 (configuration not stated)	Active	Active
O=C(CN1CCN(c2ccccc2)CC1)Nc1cccc(Br)c1	inactive	inactive
O=C1NCC(c2ccccc2)C1C(=O)N/N=C/C=C/c1ccccc1[N+](=O)[O-] (configuration not stated)	Active	
